{
  "source": "patent US20090186361A1",
  "about": "“METHODS OF PREDICTING THE PHARMACEUTICAL TOXICITY OF TAXANES” (priority 2008, published 2009)",
  "key": {"TUBB gene locus": {"tested_on": "TUBB gene locus", "assay": "Regression of Toxicity Index on TUBB SNP genotype of recipient subjects", "type": "in vivo, human", "text": "The GENOMELAB SNPSTREAM™ (Beckman) was utilized to accommodate up to 92,000 genotypes per day. This automated, multiplexed system can process up to 48 SNPs in each well of an arrayed 384-well plate. The SNPSTREAM™ operates at a consistent cost per genotype or per sample, regardless of run throughput, allowing users to cost-effectively zero in on targets with low-throughput studies as well as conduct high-throughput analyses.\nThe SNPSTREAM™ Genotyping System features a protocol with three steps. The technology is based on single-based primer extension technology. The system's high sensitivity delivers results using as little as 2 ng of genomic DNA. SNPWARE™ reagent kits were used. The kits included ready-to-use reagents, all performed in the original PCR plate according to the manufacturer's instructions, and incorporated herein by reference in its entirety.\nMultiplexed reactions were spatially resolved on a SNPWARE™ Tag Array plate. Each of the 384 wells in a plate contained 16 or 52 unique oligonucleotides of a known sequence, or tag. Each tag on the plate was complementary to one of the tags of the 12 or 48 extension primers, plus four controls to ensure accuracy. After transfer to the Tag Array plate, each SNP was hybridized to its complementary tag. SNPs were then identified by their position in the well.\nThe process involved a multiplex PCR followed by an annealing reaction of the oligonucleotide to the specific PCR product. Next the oligonucleotide was extended by a single base which was fluorescently labeled with a terminating NTP and finally detected by two-colored fluorescence specific for the allele.\nFor each SNP, the -PCRU and -PCRL primers were first used to amplify a relevant DNA fragment surrounding the target SNP site. The components per reaction were: H2O, 3.0 μl; 10× PCR Buffer II, 0.5 μl; MgCl2 (25 mM), 1.0 μl; dNTPs (2.5 mM each), 0.18 μl; PCR Primer Pool (2.5 μM each), 0.1 μl; AMPLITAQ GOLD™ (5 U/μl), 0.125 μl for a total volume of 5.0 μl per reaction.\nPrimer -SNPU or SNPL was then used for single-base extension reaction. The thermocycler program was as follows: Step 1: 96° C. for 3 min; Step 2: 94° C. for 20 sec; Step 3: 40° C. for 11 sec; and Step 5: return to step 2 59 times, and finally to hold at 4° C.\nThirty (30) recipient subjects already receiving treatment with paclitaxel were screened for the presence of SNPs in the CYP2C8 and TUBB loci. Clinical data from each of the recipient subjects was used to first calculate a Toxicity Index (TI) value for each individual according to the method presented in Example 1, above. The genotype for each recipient subject with regard to the SNPs of CYP2C8 and TUBB was determined using SNPWARE™ and single base extension according to the methods of Example 4, above.\nFor the CYP2C8 locus, two genotypes for the rsl 058932 SNP (as shown in FIG. 1) were considered: heterozygous TC and homozygous CC. For the TUBB locus (SNP rs3132584), the heterozygous SNP CA, and the combined homozygous AA and CC variants, were considered.\nA preliminary data analysis focused on the relationship between the Toxicity Index and the recipient subjects' demographic/genetic information. […] Univariate linear regression analysis was conducted first to find significant covariates in predicting the Toxicity Index in one of five cycles, then multivariable analysis was used to determine the best model in fitting the data. A mixed model for repeated measurement was implemented in modeling Toxicity Index in the first five cycles, and also in all cycles. Autoregressive covariance structure was used in the mixed model. SAS and Minitab were used in the analysis.\nCovariates in the analysis included recoded binary demographic variables (sex, race, site, grade, stage) and recoded binary genetic variables.\nMultivariable regression analysis was used to find the best model in predicting the Toxicity Index in each of the first five cycles."}, "CYP2C8 gene locus": {"tested_on": "CYP2C8 gene locus", "assay": "Regression of Toxicity Index on CYP2C8 SNP genotype of recipient subjects", "type": "in vivo, human", "protocol": "The […] ™ Genotyping System features a protocol with three steps. The technology is based on single-based primer extension technology. […] SNPWARE™ reagent kits were used.\nFor each SNP, the -PCRU and -PCRL primers were first used to amplify a relevant DNA fragment surrounding the target SNP site. The components per reaction were: H2O, 3.0 μl; 10× PCR Buffer II, 0.5 μl; MgCl2 (25 mM), 1.0 μl; dNTPs (2.5 mM each), 0.18 μl; PCR Primer Pool (2.5 μM each), 0.1 μl; [sequence] GOLD™ (5 U/μl), 0.125 μl for a total volume of 5.0 μl per reaction."}},
  "data": [
    {"smiles": "CC(=O)O[C@H]1C(=O)[C@@]2(C)[C@H]([C@H](OC(=O)c3ccccc3)[C@]3(O)C[C@H](OC(=O)[C@H](O)[C@@H](NC(=O)c4ccccc4)c4ccccc4)C(C)=C1C3(C)C)[C@]1(OC(C)=O)CO[C@@H]1C[C@@H]2O", "note": "[Paclitaxel, (2aR,4S,4aS,6R,9S,11S,12S,12aR,12bS)-1,2a,3,4,4a,6,9,10,11,12,12a,12b-Dodecahydro-4,6,9,11,12,12b-hexahydroxy-4a,8,13,13-tetramethyl-7,11-methano-5H-cyclodeca(3,4)benz(1,2-b)oxet-5-one 6,12b-diacetate, 12-benzoate, 9-ester with (2R,3S)-N-benzoyl-3-phenylisoserine]", "values": [
      {"measurement": "Coef, regression TI1 versus CYP2C8_2_31, TUBB2: predictor TUBB2", "setting": "TUBB gene locus; 30 recipient subjects, rs3132584, heterozygous CA vs combined AA and CC, P 0.039", "result": "−0.9135"},
      {"measurement": "Para. Est., TI2 vs TUBB4 (multivariable)", "setting": "TUBB gene locus; multivariable analysis best model, cycle 2, rs1061397, CC = 1, TC/TT = 0, P-value 0.037", "result": "−1.185"},
      {"measurement": "Para. Est., TI1 vs TUBB2 (multivariable)", "setting": "TUBB gene locus; multivariable regression with CYP2C8_2_31, cycle 1, rs3132584, CA = 1, CC/AA = 0, P-value 0.039", "result": 0.914},
      {"measurement": "Para. Est., TI1 vs TUBB1", "setting": "TUBB gene locus; univariate linear regression, cycle 1, rs8233, AG = 1, AA/GG = 0, P-value 0.042", "result": 0.975},
      {"measurement": "Para. Est., TI1 vs TUBB2", "setting": "TUBB gene locus; univariate linear regression, cycle 1, rs3132584, CA = 1, CC/AA = 0, P-value 0.042", "result": 0.975},
      {"measurement": "Para. Est., TI2 vs TUBB3", "setting": "TUBB gene locus; univariate linear regression, cycle 2, rs25527, CC = 1, TC/TT = 0, P-value 0.047", "result": "−1.062"},
      {"measurement": "Para. Est., TI2 vs TUBB4", "setting": "TUBB gene locus; univariate linear regression, cycle 2, rs1061397, CC = 1, TC/TT = 0, P-value 0.037", "result": "−1.185"},
      {"measurement": "Coef, regression TI1 versus CYP2C8_2_31, TUBB2: predictor CYP2C8_2_31", "setting": "CYP2C8 gene locus; 30 recipient subjects, rs1058932, heterozygous TC vs homozygous CC, P 0.020", "result": "−1.1100"},
      {"measurement": "Para. Est., TI4 vs CYP2C8_1C (multivariable)", "setting": "CYP2C8 gene locus; multivariable analysis best model, cycle 4, rs17110453, AA = 1, CA = 0, P-value 0.033", "result": "−1.267"},
      {"measurement": "Para. Est., TI1 vs CYP2C8_2_31 (multivariable)", "setting": "CYP2C8 gene locus; multivariable regression with TUBB2, cycle 1, rs1058932, CC = 1, TC = 0, P-value 0.020", "result": "−1.110"},
      {"measurement": "Para. Est., TI1 vs CYP2C8_2_31", "setting": "CYP2C8 gene locus; univariate linear regression, cycle 1, rs1058932, CC = 1, TC = 0, P-value 0.021", "result": "−1.168"},
      {"measurement": "Para. Est., TI4 vs CYP2C8_1C", "setting": "CYP2C8 gene locus; univariate linear regression, cycle 4, rs17110453, AA = 1, CA = 0, P-value 0.033", "result": "−1.267"}
    ]}
  ]
}
